Residues, ends and D or L forms follow the SMILES beside them. *: point of attachment. Boc = CC(C)(C)OC(=O)*
Row | melting point [°C] | SMILES
1 | 94.8 to 96.9 | CCCCOP(=O)(OCCCC)OCN1C(=O)NC(c2ccccc2)(c2ccccc2)C1=O
2 | 173 to 175 | CCN1C(=O)C(C(=O)Nc2cccc(C(=O)Nc3ccccc3)c2)c2cc(C(C)=O)ccc21 (configuration not stated)
3 | 118 to 120 | CSc1c(C(=O)O)ccc(C)c1C
4 | 114 to 115 | Cn1c(-c2ccc(Br)cc2)cc2ccccc21
5 | 202 to 204 | CC(=O)[NH+]([O-])C[C@@H]1CN(c2ccc(N3CCOCC3)c(F)c2)C(=O)O1 (some centres not stated)
6 | 167 to 170 | CCOC(=O)C(C)COc1ccccc1-c1cc(C#N)c(=O)[nH]c1C (configuration not stated)
7 | 132 | CCCOc1ccc(-c2c(C(=O)OC)c(C(=O)OC)c(O)c3cc(OC)c(OC)c(OC)c23)cc1OCCC
8 | 230 to 235 | CCc1n[nH]c(=O)c2ccc(OC)cc12
9 | 115 to 125 | Cc1cccc(C)c1-c1nc2ccccc2n2cncc12
10 | 112 to 115 | CC(C)OC(=O)c1cc(-n2c(=O)c3c(n(C)c2=O)CCC3)c(F)cc1F
11 | 205 to 208 | C=CCNc1c(F)cc2c(=O)c(C(=O)O)cn(-c3nc(N)c(F)cc3F)c2c1Cl
12 | 172 to 173 | CC(C)Cn1c(CNC(=O)OC(C)(C)C)c(-c2ccccc2)c2cc(/C=C/C(=O)O)ccc2c1=O
13 | 141 | COc1ccc(-c2cc3cc(OC)cc([N+](=O)[O-])c3o2)cc1
14 | 149 to 150 | Fc1ccccc1Cn1c(-c2ccc3c(c2)OCO3)nc2ccccc21
15 | 164 to 167 | O=C(Cn1c2c(c(=O)n3nc(-c4ccccc4)cc13)CN(C1CCCCC1)C2=O)c1ccccc1
16 | 180 to 182 | COC(=O)c1cccc2cc(C)n(Cc3ccc(-c4ccccc4-c4nnn[nH]4)cc3)c12
17 | 78 to 79 | CCCNON=C(C)C1=CCCN(C)C1
18 | 54 to 58 | COCSCCNC(=C[N+](=O)[O-])SC
19 | 143 to 146 | Cc1cc(NC(=O)C2CSc3sccc3C2=O)no1 (configuration not stated)
20 | 173 to 176 | COc1cc(N)c(Cl)cc1C(=O)NC1CCN(CC2CCCCC2)CC1C (configuration not stated)
21 | 162 | Cc1ccc(O)c(Cn2c(NCCCN3CCOCC3)nc3ccc(Cc4c(C)cc(NCCO)cc4C)cc32)n1
22 | 245 to 248 | COc1cccc(Cc2nc3n(-c4c(Cl)cc(Cl)cc4Cl)[nH]c(SC)c-3c(=O)n2)c1
23 | 152 to 153 | CC(C)=NOCc1nc2c(N)nc3ccccc3c2s1
24 | 67 | COc1cc(Cc2cc3cc(Cl)ccc3n2S(=O)(=O)c2ccc(C(C)C)cc2)ccc1C(=O)O

Row | melting point [°C] | SMILES
25 | 226 to 228 | Cc1c(CC2=C(O)CCC2=O)ccc2ccccc12
26 | 91 to 93 | COC(=O)COc1ccc(C=O)cc1OC
27 | 245 to 247 | COc1cc2nc(N)nc(-c3ccc(O)cc3Cl)c2cc1OC
28 | 198 to 200 | N#Cc1cccc(-c2ccc3c(c2)C2(CCCCC2)C(=NO)N3)c1
29 | 150 to 153 | CC(C)(C)N1CCCC1=C(C#N)c1ccc(Cl)cc1
30 | 126 to 127 | COc1cccc(OC2CN([C@H]3CC[C@@H](c4cc5cc(C#N)ccc5[nH]4)CC3)C2)c1
31 | 45 to 47 | CC(=O)Oc1ccc(Cl)nc1
32 | 233 to 234 | O=C(Nc1ccc(F)cc1F)c1cc(-c2ccc(F)cc2F)ccc1O
33 | 189 to 191 | CCNC(=O)[C@@H](C[C@H](O)[C@H](CC1CCCCC1)NC(=O)[C@H](Cc1cscn1)NC(=O)OC(C)(C)C)C(C)(C)O
34 | 82 to 84 | CC(C)Cn1cnc2cnc3cccnc3c21
35 | 189 to 190 | CC(C)CC(NC(=O)C(Cc1ccc(O)cc1)NC(=O)OC(C)(C)C)C(=O)NCC(=O)O (stereo not drawn) (Boc-Tyr-Leu-Gly-OH; configuration not given here)
36 | 166 to 167 | COc1ccc(N2CCN(c3c(C)c(C)c4c(c3C)C(=CCc3ccccc3)C(C)(C)O4)CC2)cc1
37 | 124 to 126 | Nc1ccc(OC2(c3ccccc3)CCN(Cc3ccccc3)CC2)cc1
38 | 192 to 195 | O=C(Nc1ccc(-n2nc(C3CC3)cc2C2CC2)nc1)c1ccncc1F
39 | > 280 | O=C(Cc1ccccc1)Nc1ccc(-c2ccc(C(=O)O)c(=O)[nH]2)cc1
40 | 120 | CS(=O)(=O)c1cc(OCC(O)CNC2CCC(c3ccc(C(=O)N4CCC(C(O)c5ccccc5)CC4)cc3)CC2)ccc1O (configuration not stated)
41 | 256 to 258 | NC(=O)c1cnn2c(-c3cccc(C(F)(F)F)c3)ccnc12
42 | 64 | Cc1ccc2cccc(OCc3c(Cl)ccc(S(=O)(=O)N4CCCC4C(=O)NCCCCCO)c3Cl)c2n1 (configuration not stated)
43 | 45 to 47 | CCCCCCCC/C=C\CCCCCCCC(=O)CCCNC(=O)CCNC(=O)C1OC(C)(C)OCC1(C)C (configuration not stated)
44 | 130 to 131 | O=C(O)CCC(=O)c1ccc(N2CCC3(CC2)OCCO3)cc1
45 | 220 to 222 | N#Cc1cnc2cc(Cl)c([N+](=O)[O-])cc2c1Nc1ccc(Oc2ccccc2)cc1
46 | 110 to 113 | Cc1ccc(CCN2CCC[C@H](C(C#N)(c3ccccc3)c3ccccc3)C2)cc1
47 | 170 to 173 | CS(=O)(=O)Nc1cccc(Nc2nc(NCc3cccc(N)c3)c3nc[nH]c3n2)c1
48 | 75 to 77 | Oc1ccc(Nc2nc(NCc3ccco3)nc(Nc3ccc(F)c(F)c3)n2)cc1

Row | melting point [°C] | SMILES
49 | 82 | CCNc1ccccc1S(=O)(=O)C[N+](=O)[O-]
50 | 78 to 87 | O=C(O)CCCC/C=C(\c1ccc(-c2nc(C(=O)N[C@@H]3C[C@H]3c3ccccc3)co2)cc1)c1cccnc1
51 | 84 to 85 | COC1(c2cc(F)cc(Sc3ccc(C(C)ONC(N)=O)cc3)c2)CCOCC1 (configuration not stated)
52 | 186 | CC1(C)CCC(C)(C)c2cc(NC(=O)c3ccc(C=O)cc3)ccc21
53 | 126 to 128 | CCCCc1nc2ccccn2c(=O)c1-c1ccc(N2CCN(C(=O)OC(C)(C)C)CC2)nc1
54 | 105 | BrCCCCCCCCCCCCCCCCCCCCCCCCBr
55 | 193 | CNc1nc(Nc2cccc(OCCNC(=O)OC(C)(C)C)c2)ncc1[N+](=O)[O-]
56 | 70 to 73 | BrCc1ccc(OCC(c2ccccc2)c2ccccc2)cc1
57 | 196 to 199 | CC1CC(=O)c2ccc(C(C)C(=O)O)cc2C1 (configuration not stated)
58 | 198 | CNc1cc(F)cc(NC)c1[N+](=O)[O-]
59 | 134 to 136 | O=C(Cn1ccnc1)c1ccc(CCc2ccccc2)cc1
60 | 104 to 106 | CC1=C(C2OC(=O)NC2=O)CCCC1 (configuration not stated)
61 | 100 to 105 | c1ccc(CO[C@@H]2CCC[C@H]2Nc2nc(N3CCN(c4ccccc4)CC3)nc3c2SCC3)cc1
62 | 191 to 193 | C#CCOc1ccc(/C=C/C(=O)Nc2ccccc2C(=O)O)cc1OC
63 | 141 to 142 | O=C(c1cn(Cc2ccccc2Cl)nn1)N1CCCCC1
64 | 100 to 102 | COC=C(C(=O)OC)c1cnc(C)nc1Oc1cccc(C(F)(F)F)c1
65 | 69 to 70 | CCOC(=O)/C=C(\c1ccc(C)cc1)c1ccc(OC)c(OC)c1
66 | 191 to 193 | CS(=O)(=O)c1ccc(-c2c(OCC(=O)c3ccc(F)cc3)nn(CC(=O)c3ccc(F)cc3)c2-c2ccc(F)cc2)cc1
67 | 110 to 111 | CC(C)n1c(=O)n(CC2CO2)c2cc(-c3ncc(C(F)(F)F)cc3Cl)ccc21 (configuration not stated)
68 | 49 to 50 | CN(C)c1c(Cl)nc(-c2ccccc2)nc1Cl
69 | 126 | CC(C#N)c1ccc2nc(-c3ccccc3)ccc2c1 (configuration not stated)
70 | 125 to 126 | Cc1cccc(NC(=O)c2ccccc2)c1Cl
71 | 192 to 193 | COc1nc(C)c(C)cc1NC(=S)N1CCN(c2cc(C)cc(C)c2)CC1
72 | 95 to 96 | CCCOc1c(OC)cc([C@H]2CC[C@H](c3cc(OC)c(OC)c(OC)c3)O2)cc1S(C)(=O)=O (relative stereo)

Row | melting point [°C] | SMILES
73 | 74 | Cc1c(CCCCCCCCCC(=O)O)cccc1C(=O)c1ccc(Cl)cc1
74 | 56 to 58 | CCOC(=O)CCCCc1cn(-c2cccnc2)c2ccccc12
75 | 226 to 228 | CCN(CC)CCN1C(=O)c2cc(OC)c3[nH]c4ccc(O)cc4c3c2C1=O
76 | 134 to 137 | CC(=O)O[C@@]12C[C@@H](OC1=O)C(=O)[C@H](O[Si](C)(C)C(C)(C)C)C2
77 | 119 to 121 | Cc1cccc(-c2n[nH]cc2-c2ccc(F)c(-c3ccc(S(N)(=O)=O)c(F)c3)c2)n1
78 | 55 to 57 | CC1(C)OC(C=Cc2ccc(F)cc2)=CC1=O
79 | 223 to 225 | COc1cc2nc(N3CCN(C(=O)C4CCCCC4)CC3)nc(N)c2cc1OC
80 | 202 to 205 | CC(C)c1cccc(C(C)C)c1NC(=O)CS(=O)(=O)Nc1c(C(C)C)cccc1C(C)C
81 | 117 to 118 | Cc1noc(C)c1Cn1cc(N2C(=O)CN(CCOc3ccccc3)C2=O)cn1
82 | 130 to 133 | CC(=O)OCC1OC(Oc2ccc(N)cc2)C(OC(C)=O)C(OC(C)=O)C1OC(C)=O (configuration not stated)
83 | 91 to 92 | CC(C)C(OCCc1ccc(-c2ccc(Cl)cc2)cc1)C(=O)O (configuration not stated)
84 | 141 to 143 | CCc1cc(C#N)c(=O)[nH]c1COCc1ccccc1
85 | 236 to 237 | CCOc1ccc(-c2nc(-c3cc(C(=O)O)ccn3)cs2)cc1OCC
86 | 106 to 110 | O=C(NCc1ccccn1)OC1Cc2ccccc2N(S(=O)(=O)c2ccc(Cl)cc2)C1 (configuration not stated)
87 | 176 to 181 | CC(=O)Nc1ccc(C#N)cc1I
88 | 163 to 165 | N#CNC(=O)[C@H](Cc1ccccc1)NC(=O)[C@@H]1CCC(=O)N1
89 | 98 to 101 | CC(=O)OC1CCC2(C)C(=CC=C3C2CCC2(C)C(C(C)CC#CC(C)(C)OC(C)=O)=CCC32)C1 (configuration not stated)
90 | 55 to 57 | CCNc1cc(C(C)=O)ccn1
91 | 154 to 155 | O=C(NCC12CC3CC(CC(C3)C1)C2)c1cc(OCCO)ncc1Cl
92 | 180 to 184 | COC(=O)C1=C(CCc2ccccc2)NC(CC(=O)N2CCN(CC(=O)N3CCCC3)CC2)=C(C(=O)OC)C1c1c(Cl)cccc1Cl (configuration not stated)
93 | 131 to 132 | N#Cc1cc(-c2ccc(Cl)cc2)nc(Oc2ccc(F)c(C(F)(F)F)c2)n1
94 | 177 | CC(C)c1ccc(C(=O)Cl)cc1S(N)(=O)=O

Row | SMILES | melting point [°C]
95 | Nc1ccc(CN2CCN(c3ccccc3)CC2)cc1 | 105
96 | C=CC(=O)NC(=O)NC(=O)CCl | 144 to 145
97 | CC(=O)c1nc(C)n2c1CN=C(c1ccccc1Cl)c1cc(Cl)ccc1-2 | 234 to 236
